Patent US20150374646A1, “TREATMENT OF CANCER AND OTHER CONDITIONS USING A TRANSCRIPTION FACTOR MODULATOR” (C & C BIOPHARMA, LLC, priority 2013, published 2015)

What was measured:
Type in all cases: cell-based
[1] = test system: RPMI-8226; assay: Leukemia cell growth inhibition, CellTiter-Glo (Example 1); conditions: Homo sapiens; RPMI-8226, Multiple myeloma; 72 hours
Method: (§2) Various human leukemia cells were grown to the logarithmic growth phase and seeded into 24-well plates. […] Treated cells were further incubated for 72 hours and then were examined for cell proliferation. Cell proliferation was determined using the CellTiter-Glo Luminescence Cell Viability assay (Promega Corporation, Madison, Wis.) according to the manufacturer's protocol. The calculated inhibition rate was determined with the following formula: Inhibition rate (%)=(1−Luminescence of experimental group/Luminescence of control group)×100. IC50 is the calculated concentration of a compound needed to inhibit half of the maximum cell growth (equivalent to cell growth in control group) based on the corresponding dose-response curve under the described experimental conditions.

[2] = test system: NCI-H522; assay: Cancer cell line growth inhibition, CellTiter-Glo (Example 3); conditions: Homo sapiens, NSCLC, 72 hours
Method: (§1) YT30 was tested for growth inhibition against 67 human cancer cell lines derived from diverse tissues including the National Cancer Institute human cancer cell lines (NCI-60). […] Cells in different wells were treated with various concentrations of YT30, YT86, YT88, or YT128. […] Cell viabilities were determined by the CellTiter-Glo Luminescence Cell Viability assay kit (Promega Corporation, Madison, Wis.) according to manufacturer's protocol.

[3] = test system: HL60; assay: as above; conditions: Homo sapiens, HL-60, Leukemia, 72 hours, read-out: IC50
Method: as §1

[4] = test system: CAK1; assay: as above; conditions: Homo sapiens, Renal, 72 hours
Method: as §1

[5] = test system: NCI-H23; assay: as above; conditions: Homo sapiens, NSCLC, 72 hours
Method: as §1

[6] = test system: SR; assay: as above; conditions: Homo sapiens, Leukemia, 72 hours, read-out: IC50
Method: as §1

[7] = test system: SK-MEL-28; assay: as above; conditions: Homo sapiens, Melanoma, 72 hours
Method: as §1

[8] = test system: UACC-62; assay: as above; conditions: Homo sapiens, Melanoma, 72 hours
Method: as §1

[9] = test system: SF-539; assay: as above; conditions: Homo sapiens, CNS, 72 hours, read-out: IC50
Method: as §1

[10] = test system: HOP-92; assay: as above; conditions: Homo sapiens, NSCLC, 72 hours
Method: as §1

[11] = test system: K562; assay: as above; conditions: Homo sapiens, Leukemia, 72 hours, read-out: IC50
Method: as §1

[12] = test system: U251; assay: as above; conditions: Homo sapiens, U-251, CNS, 72 hours, read-out: IC50
Method: as §1

[13] = test system: CCRF-CEM; assay: as above; conditions: Homo sapiens, Leukemia, 72 hours, read-out: IC50
Method: as §1

[14] = test system: EKVX; assay: as above; conditions: Homo sapiens, NSCLC, 72 hours
Method: as §1

[15] = test system: SEM cells; assay: as above; conditions: Homo sapiens, Leukemia, 72 hours
Method: as §1

[16] = test system: HOP-62; assay: as above; conditions: Homo sapiens, NSCLC, 72 hours
Method: as §1

[17] = test system: HS 578T; assay: as above; conditions: Homo sapiens, Breast, 72 hours, read-out: IC50
Method: as §1

[18] = test system: M14; assay: as above; conditions: Homo sapiens, Melanoma, 72 hours
Method: as §1

[19] = test system: MDA-MB-435; assay: as above; conditions: Homo sapiens, Melanoma, 72 hours, read-out: IC50
Method: as §1

[20] = test system: A549; assay: as above; conditions: Homo sapiens, NSCLC, 72 hours, read-out: IC50
Method: as §1

[21] = test system: HeLa; assay: as above; conditions: Homo sapiens, Cervical, 72 hours, read-out: IC50
Method: as §1

[22] = test system: MALME-3M; assay: as above; conditions: Homo sapiens, Melanoma, 72 hours
Method: as §1

[23] = test system: RPMI-8226; assay: as above; conditions: Homo sapiens, Leukemia, 72 hours
Method: as §1

[24] = test system: MDA-MB231; assay: as above; conditions: Homo sapiens, MDA-MB-231; Breast, MDA-MB231; 72 hours; read-out: IC50
Method: as §1

[25] = test system: LOX IMVI; assay: as above; conditions: Homo sapiens, Melanoma, 72 hours
Method: as §1

[26] = test system: NCI-H226; assay: as above; conditions: Homo sapiens, NSCLC, 72 hours
Method: as §1

[27] = test system: SN12C; assay: as above; conditions: Homo sapiens, Renal, 72 hours, read-out: IC50
Method: as §1

[28] = test system: MCF7; assay: as above; conditions: Homo sapiens, Breast, 72 hours, read-out: IC50
Method: as §1

[29] = test system: PC-3; assay: as above; conditions: Homo sapiens, Prostate, 72 hours
Method: as §1

[30] = test system: NCI-H460; assay: as above; conditions: Homo sapiens, NSCLC, 72 hours
Method: as §1

[31] = test system: HepG2; assay: as above; conditions: Homo sapiens, Liver, 72 hours
Method: as §1

[32] = test system: MOLT-4; assay: as above; conditions: Homo sapiens, Leukemia, 72 hours, read-out: IC50
Method: as §1

[33] = test system: OVCAR-5; assay: as above; conditions: Homo sapiens, Ovary, 72 hours, read-out: IC50
Method: as §1

[34] = test system: TK-10; assay: as above; conditions: Homo sapiens, Renal, 72 hours, read-out: IC50
Method: as §1

[35] = test system: SF-295; assay: as above; conditions: Homo sapiens, CNS, 72 hours, read-out: IC50
Method: as §1

[36] = test system: UACC-257; assay: as above; conditions: Homo sapiens, Melanoma, 72 hours
Method: as §1

[37] = test system: Caski; assay: as above; conditions: Homo sapiens, Ca-Ski, Cervical, 72 hours, read-out: IC50
Method: as §1

[38] = test system: SW-620; assay: as above; conditions: Homo sapiens, Colon, 72 hours
Method: as §1

[39] = test system: A498; assay: as above; conditions: Homo sapiens, Renal, 72 hours, read-out: IC50
Method: as §1

[40] = test system: DU-145; assay: as above; conditions: Homo sapiens, Prostate, 72 hours, read-out: IC50
Method: as §1

[41] = test system: ACHN; assay: as above; conditions: Homo sapiens, Renal, 72 hours
Method: as §1

[42] = test system: Jurkat; assay: Leukemia cell growth inhibition, CellTiter-Glo (Example 1); conditions: Homo sapiens, ALL (T-cell), 72 hours
Method: as §2

Nc1ccccc1NC(=O)CCCCCC(=O)Nc1cccc(Br)c1 [YT30]
IC50 [1]: 2 µM
IC50 [2]: 8.15 µM
IC50 [3]: 1.04 µM
IC50 [4]: 11.7 µM
IC50 [5]: 11 µM
IC50 [6]: 6.89 µM
IC50 [7]: 5.99 µM
IC50 [8]: 5.2 µM
IC50 [9]: 10.8 µM
IC50 [10]: 11 µM
IC50 [11]: 1.82 µM
IC50 [12]: 7.36 µM
IC50 [13]: 1.53 µM
IC50 [14]: 4.57 µM
IC50 [15]: 1.15 µM
IC50 [16]: 29.6 µM
IC50 [17]: 10.8 µM
IC50 [18]: 6.13 µM
IC50 [19]: 10.4 µM
IC50 [20]: 3.41 µM
IC50 [21]: 4.3 µM
IC50 [22]: 5.84 µM
IC50 [23]: 2 µM
IC50 [24]: 14.2 µM
IC50 [25]: 3.03 µM
IC50 [26]: 12.7 µM
IC50 [27]: 9.52 µM
IC50 [28]: 6.84 µM
IC50 [29]: 9.79 µM
IC50 [30]: 5.41 µM
IC50 [31]: 12.7 µM
IC50 [32]: 1.13 µM
IC50 [33]: 11.9 µM
IC50 [34]: 16.1 µM
IC50 [35]: 10.3 µM
IC50 [36]: 6.1 µM
IC50 [37]: 5 µM
IC50 [38]: 11 µM
IC50 [39]: 13.9 µM
IC50 [40]: 4.98 µM
IC50 [41]: 12.5 µM
IC50 [42]: 0.91 µM
